We go through 1 molecule from publication PMC11539218 (Antimicrobial Agents and Chemotherapy, 2024).

The subject of series [1] is amastigotes of L. (L.) infantum. The note with it: cited from earlier work.
Series [2] concerns L. (L.) infantum promastigotes. The series is described as follows: Total proteins of the parasite. It counts as cell-based, Leishmania (L.) infantum. As to conditions: promastigotes after treatment.
For series [3], the system named is L. (L.) infantum promastigotes. Kind of series: Plasma membrane permeability (Sytox Green). It counts as cell-based, Leishmania (L.) infantum. The note with it: compound 1 169.2 µM, Triton X-100 0.5%, up to 4 h. How it is done: Promastigotes (2 × 10^6/well) were pretreated with Sytox Green (1 µM) for 15 min, at 24°C. Then, compound 1 (169.2 µM) was added and the fluorescence was monitored every 20 min up to 4 h in a spectrofluorometer, with excitation and emission wavelengths of 485 and 535 nm, respectively ([17]). Triton X-100 (0.5% vol/vol) was employed as positive control and untreated parasites as negative control ([18]).

The subject of series [4] is L. (L.) infantum promastigotes. It counts as cell-based, Leishmania (L.) infantum. As to conditions: compound 1 169.2 µM, sodium azide 10 mM; 2 and 4 h; H2DCFDA; vs untreated. The procedure:
Promastigotes (2 × 10^6/well) were treated with compound 1 (169.2 µM) for 2 and 4 h, at 24°C. Later, H2DCFDA (5 µM) was added and the parasites were incubated for 15 min. Fluorescence was monitored in a spectrofluorometer with excitation and emission wavelengths of 485 and 535 nm, respectively ([19]). Sodium azide (10 mM) was employed as positive control and untreated parasites as negative control.

Series [5] has as its system L. (L.) infantum promastigotes. The series is described as follows: Adenosine triphosphate levels (luciferase bioluminescence). It counts as cell-based, Leishmania (L.) infantum. As to conditions: 169.2 µM; 2 and 4 h; vs untreated parasites. The procedure:
Promastigotes (2 × 10^6/well) were treated with compound 1 (169.2 µM) for 2 and 4 h, at 24°C. Subsequently, the parasites were lysed with Triton X-100 (0.5%) and mixed with ATP Determination Kit standard reaction buffer (1 mM DTT, 0.5 mM luciferin, and 1.25 µg/mL luciferase), according to the manufacturer’s instructions. […] CCCP (10 µM) was employed as positive control and untreated parasites as negative control.

Series [6] relates to L. (L.) infantum promastigotes. Kind of series: DNA content / integrity (agarose gel electrophoresis). It counts as cell-based, Leishmania (L.) infantum. As to conditions: compound 1 169.2 µM, H2O2 10 mM; 24 h; 2% agarose gel. The procedure: Promastigotes (1 × 10^7/well) were treated with compound 1 (169.2 μM) in M199 medium supplemented with 10% FBS and 0.25% hemin, pH 7.2, for 24 h at 24°C. Then, the genetic material was extracted using the QIAamp DNA Mini Kit, according to the manufacturer’s instructions. Total DNA quantification was performed in a NanoDrop ND-1000 spectrophotometer (260/280 nm). The purified genetic material (300 ng) was analyzed by electrophoresis for 1 h at […] in a 2% agarose gel with ethidium bromide (0.5 µg/mL). Visualization was performed under UV light in a MiniBIS Pro transilluminator (DNR Bio Imaging System) ([21]). H2O2 (10 mM) was employed as positive control and untreated parasites as negative control ([26]).

In series [7] the test system is L. (L.) infantum promastigotes. Kind of series: Cell cycle (propidium iodide, flow cytometry). It counts as cell-based, Leishmania (L.) infantum. As to conditions: 24 h; compound 1 169.2 µM, miltefosine 25 µM. The procedure: Promastigotes (2 × 10^6/well) in exponential phase, were treated with compound 1 (169.2 µM) in M199 medium supplemented with 10% FBS and 0.25% hemin, pH 7.2, for 24 h at 24°C. In sequence, 70% (vol/vol) ice-cold ethanol was used for cell permeabilization overnight at −20°C. Then, the parasites were incubated with propidium iodide (10 µg/mL) and RNase A (20 µg/mL) for 30 min. […] Miltefosine (25 µM) was employed as positive control and untreated parasites as negative control ([25]).

The subject of series [8] is Peritoneal macrophages infected with L. (L.) infantum. Kind of series: Cytokines in infected macrophages (ELISA). As to conditions: 48 and 72 h. It counts as cell-based, BALB/c mice. The procedure: L. (L.) infantum (MHOM/BR/1972/LD) promastigotes were maintained in M199 medium supplemented with 10% FBS and 0.25% hemin, pH 7.2 at 24°C. Amastigotes were isolated from golden hamsters (M. auratus) by differential centrifugation of infected spleens and the parasite’s number was determined according to Stauber ([14]). Peritoneal macrophages were obtained from the peritoneal cavity of BALB/c mice and maintained in RPMI-1640 medium supplemented with 10% FBS, pH 7.2 at 37°C.
Peritoneal macrophages (1 × 10^6/well) were infected with L. (L.) infantum […] (10:1 amastigotes/macrophage) for 24 h, at 37°C with 5% CO2. Subsequently, compound 1 (10 and 60 µM) was added and the incubation followed the same conditions described above. Cell supernatants were collected after 48 and 72 h and the cytokines (IL-4, IL-10, IL-12, and INF-γ) were measured using the BD OptEIA Mouse ELISA set kits, according to the manufacturer’s instructions. Concanavalin A (5 µg/mL) was employed as positive control and untreated cells as negative control.

For series [9], the system named is L. (L.) infantum promastigotes. The series is described as follows: Ultrastructural studies (transmission electron microscopy). The series is classed as cell-based, Leishmania (L.) infantum. The note with it: 169.2 µM, TEM. How it is done:
Promastigotes (3 × 10^7 parasites/well) were treated with compound 1 (169.2 µM) for 2, 4, and 6 h at 24°C. Subsequently, parasites were fixed in glutaraldehyde solution (2.5% wt/vol) and post-fixed in osmium tetroxide (1% wt/vol). The samples were gradually dehydrated in acetone and embedded in Epon 812 resin. Ultrathin sections were stained with uranyl acetate and lead citrate ([27]). The material was analyzed under a transmission electron microscope (JEOL JEM-1011). Untreated parasites were employed as a negative control.

For series [10], the system named is L. (L.) infantum promastigotes. Kind of series: Intracellular Ca2+ (Fluo-4 AM). As to conditions: 169.2 µM, from 20 min up to 4 h, vs untreated. It counts as cell-based, Leishmania (L.) infantum. How it is done:
Promastigotes (2 × 10^6/well) were pretreated with Fluo-4 AM (5 µM) in PBS, for 1 h at 24°C. Then, parasites were treated with compound 1 (169.2 µM). Fluorescence was measured every 20 min up to 4 h in a spectrofluorometer, with excitation and emission wavelengths of 485 nm and 535 nm, respectively ([21]). Triton X-100 0.5% (vol/vol) was employed as positive control and untreated parasites as negative control.

A value given as a limit tells only on which side of the number the result lay.

For the molecule `C=CCc1cc(OC)c(OCc2ccc(OC)cc2)c(Oc2ccc(CN3CCOCC3)cc2OC)c1` [compound 1, 4-(4-(5-allyl-3-methoxy-2-((4-methoxybenzyl)oxy)phenoxy)-3-methoxybenzyl)morpholine], the IC50 in [1] (intracellular amastigotes, 24 h incubation, read-out: IC50 against amastigotes of L. (L.) infantum) was 9.7 µM. For the same molecule, in [1] (selectivity index), the SI is given as over 20. In [2], the total protein level entry is listed as “increased level of total protein”. Moreover, in series [3], the plasma membrane permeability result is recorded as “no alteration”. Also, in series [4], the ROS levels entry is reported as “significant reduction”. Also, the ATP concentration result in series [5] is given as “significant reduction”. Besides, in [6], the “integrity of the genetic content (DNA)” value was “no alterations”. In addition, in series [7], the “Proportion of parasites in different phases of the cell cycle (% ± SD): G0/G1” value is 46.6 ± 0.7 %, the “Proportion of parasites in different phases of the cell cycle (% ± SD): M/G2” value was found to be 17.9 ± 0.5%, the “Proportion of parasites in different phases of the cell cycle (% ± SD): S” value was 11.1 ± 1.3% and the “Proportion of parasites in different phases of the cell cycle (% ± SD): Sub G0” value worked out at 7.5 ± 0.7 %. Also, the IL-10 levels result in series [8] (10 and 60 µM, vs untreated control) is “reduction”. Moreover, in [8] (only at 60 µM), the IL-4 levels entry is recorded as “significantly reduced levels”, the IL-12 levels entry is reported as “significantly reduced levels” and the INF-γ levels entry is on record as “significantly reduced levels”. For the same molecule, the ultrastructural alterations entry in series [9] (2 h) is given as “increased volume of the mitochondria”. In series [9] (all studied times (2, 4, 6 h)), the ultrastructural alterations result is reported as “autophagic vacuoles were observed in the cytoplasm”. Also, the ultrastructural alterations entry in series [9] (later times of incubation (4 h, 6 h)) is listed as “losses of mitochondrial cristae”. Also, the “intracellular Ca2+ level” value in [10] was “fast and increased Ca^2+ level”.
